Legend:
CRY2 = target: T1, CRY2 (Homo sapiens, UniProt Q49AN0); test: Protein immunoblot, unsynchronized U2-OS cells, CRY2; format: cell-based; conditions: Western blot
T1 construct: To evaluate the effect of FORMULA I on the endogenous protein and mRNA level of clock genes; endogenous in cells; host or cells: U2-OS
T1 sequence (Q49AN0 1-593): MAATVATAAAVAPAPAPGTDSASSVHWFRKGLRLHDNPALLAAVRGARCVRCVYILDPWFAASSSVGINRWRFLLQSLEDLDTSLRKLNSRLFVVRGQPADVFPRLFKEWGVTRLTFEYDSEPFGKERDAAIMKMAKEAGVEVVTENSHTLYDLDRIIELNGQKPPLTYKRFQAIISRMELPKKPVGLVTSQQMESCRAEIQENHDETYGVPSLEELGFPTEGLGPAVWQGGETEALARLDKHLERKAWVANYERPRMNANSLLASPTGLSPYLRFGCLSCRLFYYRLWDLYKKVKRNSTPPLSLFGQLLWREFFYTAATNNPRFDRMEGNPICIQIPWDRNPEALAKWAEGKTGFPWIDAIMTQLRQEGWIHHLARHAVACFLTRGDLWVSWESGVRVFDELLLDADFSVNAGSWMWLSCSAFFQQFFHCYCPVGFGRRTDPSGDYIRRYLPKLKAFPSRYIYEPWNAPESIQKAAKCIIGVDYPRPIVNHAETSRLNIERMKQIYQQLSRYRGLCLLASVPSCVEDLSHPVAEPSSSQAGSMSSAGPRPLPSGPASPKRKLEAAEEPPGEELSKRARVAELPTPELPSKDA
Experimental: Cells were lysed in RIPA buffer (50 mM Tris, 150 mM NaCl, 1% Triton-X, 0.1% SDS) with fresh Protease inhibitor cocktail (PIC). After centrifugation at 13000 rpm for 15 minutes at 4° C., supernatant was used to determine the protein amount using Pierce Protein Assay (Thermo Scientific) according to the manufacturer's instruction. Mice liver samples were homogenized and lysed with Dounce homogenizer and RIPA buffer. After homogenization samples were incubated 10 minutes on ice. After centrifugation 13000 rpm 15 minutes at 4° C. supernatant was used for the whole cell lysate. Subcellular fractionation of liver samples: Liver samples were homogenized with cytosolic lysis buffer (10 mM HEPES pH 7.9, 10 mM KCl, 0.1 mM EDTA, 0.05% NP40, proteasome inhibitor) by pipetting 40 times with a cut tip. Then samples were incubated 10 minutes on ice and centrifuged for 3 minutes at 3000 rpm at 4° C. Supernatant was saved in a new tube, and pellet was processed for the nuclear fraction. Supernatant was centrifuged at 13000 rpm for 3 minutes at 4° C. where new supernatant saved as the cytosolic fraction. […] ECL buffer system (Advansta WesternBright) was used to visualize HRP chemi-luminescence via BioRad ChemiDoc Touch visualizer.

C57BL/6J mice = test: Circadian behavioral analysis (locomotor activity); format: in vivo, mouse; conditions: constant dark conditions
Experimental: C57BL/6J mice were synchronized 10 days under 12 h:12 h light-dark cycles. After 10 days mice were treated with intraperitoneal dose of 60 mg/kg FORMULA I or vehicle for 14 days and kept under constant darkness (n=12). Locomotor activity of mice were recorded for additional 10-days without any injection. During these days locomotor activity of mice were recorded by ClockLab (Actimetrics) software program. FIG. 7A Representative locomotor activity of mice injected with vehicle (n=5) or FIG. 7B FORMULA I (n=7). FIG. 7C Period and FIG. 7D amplitude of mice under different conditions and injected with vehicle or FORMULA I. Period and amplitude values were calculated by using ClockLab Analysis (Actimetrics) program. Statistical significance was evaluated using one-way analysis of variance (ANOVA), followed by a Tukey's multiple comparisons test using Prism software (GraphPad Software)
Mice were housed in individual cages within a temperature- and humidity-controlled, light-tight enclosure. Each cage contained a running wheel. Food and water were allowed ad libitum. Animals were entrained to a 12:12 h L:D cycle for ≥2 weeks before being released into constant darkness. Then, vehicle (n=5) and FORMULA I (n=6) administered to animals for 5 days and then animals were kept under constant conditions for more than 2 weeks. […]

Cc1c(C(=O)N2CCc3ccccc32)oc2ccc3c(c12)C(=O)CC(C)(c1ccc(Cl)cc1)O3 (stereo not drawn) [FORMULA I, 11-(4-chlorophenyl)-4-(2,3-dihydro-1H-indole-1-carbonyl)-3,11-dimethyl-5,10,dioxatricyclo[7.4.0.0,2,6,]trideca-1,3,6,8-tetraen-13-one]
level of CRY2 (CRY2): CRY2 levels were comparable | amplitude of locomotor activity (C57BL/6J mice): statistically significant impact on the amplitude | shortening of locomotor period length versus vehicle (C57BL/6J mice): approximately 14 min
